Experimental data as given in patent US5502166A, “NMDH receptor proteins and genes encoding the same” (Mitsubishi Chemical Corporation, priority 1992, dated 1996).
Where two headings read alike, the source gives them in different places.

Key:
[1] = biological target: T1, ε2/.zeta.1 heteromeric NMDA receptor channel (Mus musculus, UniProt P35438+Q01097); assay: Electrophysiological test in Xenopus oocytes expressing ε2 and .zeta.1 subunits; format: cell-based; settings: for response to kainate / AMPA: 100 μM
T1 construct: expressed in transfected cells; host or cells: Xenopus oocytes injected with in vitro transcribed mRNAs
Protocol: (§1) Then, by using the pBKSA ε2 cut by NotI and the pBKSA ε3 cut by XbaI as molds and using T3 RNA polymerase produced by BRL Co., ε2-specific mRNAs and ε3-specific mRNAs were synthesized in vitro. Transcription was carried out in the same manner as in Example 1.
(§2) Effects of the competitive antagonist were examined with 10-fold concentration of the antagonist concentration used when examining the EC50 values.
Transcription was carried out in the same manner as in Example 1.

[2] = biological target: ε3/.zeta.1 heteromeric NMDA receptor channel (Mus musculus, UniProt P35438+Q01098); assay: Electrophysiological test in Xenopus oocytes expressing ε3 and .zeta.1 subunits; format: cell-based; settings: for response to kainate / AMPA: 100 μM
Protocol: as §1, §2

[3] = biological target: T2, ε1/.zeta.1 heteromeric NMDA receptor channel (Mus musculus, UniProt P35436+P35438); assay: Electrophysiological test (micropipet voltage clamp) in Xenopus oocytes expressing ε1 and .zeta.1 subunits; format: cell-based
T2 construct: expressed in transfected cells; host or cells: Xenopus oocytes injected with in vitro transcribed mRNAs
Text: as §2

[4] = biological target: ε4/.zeta.1 heteromeric NMDA receptor channel (Mus musculus, UniProt P35438+Q03391); assay: Electrophysiological test in Xenopus oocytes expressing ε4 and .zeta.1 subunits; format: cell-based
Protocol: FIGS. 1(a) and 1(b) show functional expression of ε4/.zeta.1 heteromeric NMDA receptor channel cDNAs in frog oocytes. Current responses are measured at -70 mV membrane potential in normal Ringer's solution. […] FIG. 1(b) represent effects of 500 μM D-2-amino-5-phosphonovalerate (APV) (Glu/Gly +APV) and 100 μM 7-chlorokynurenate (7 CK) (Glu/Gly +7 CK) on a current response of the ε4/.zeta.1 heteromeric channel to Glu/Gly, respectively.
Current responses are measured at -70 mV membrane potential in a Ba^2+ -Ringer's solution.
Then, by using the pSPGR ε4 plasmid cut by EcoRI as a template and using SP6 RNA polymerase, ε4-specific mRNAs were synthesized in vitro. Transcription was carried out in the same manner as in Example 1.

[5] = tested on: ε1/.xi.1, ε2/.xi.1, ε3/.xi.1 and ε4/.xi.1 heteromeric NMDA receptor channels; assay: Comparison of ε1/, ε2/, ε3/ and ε4/.xi.1 heteromeric channels in Xenopus oocytes; format: cell-based, mouse
Protocol: (§6) The oocytes used were obtained from mature female Xenopus and separated into one oocyte in a Barth medium by using sharp tweezers and scissors. The concentration of the mRNAs was 0.1 μg/μl and 10 μl thereof was injected into about 100 oocytes in an amount of 50 to 100 nl per one oocyte. The mRNAs were injected under a microscope by using a capillary and a micromanipulator. After the injection, the oocytes were incubated at 19° C. for one day in a Barth medium containing 0.1 mg/ml of gentamicin ("The Control of Gene Expression in Animal Development, Clarendon, Oxford (1974)). Then, the oocytes were allowed to stand in 1 mg/ml of collagenase at room temperature for 1 hour, and then extracellular skins were removed under a microscope by using sharp tweezers. These oocytes were returned to the Barth medium containing 0.1 mg/ml of gentamicin, incubated again at 19° C. for one day and then used for an electrophysiological test.
(§7) The electrophysiological test was carried out by a conventional micropipet voltage clamp method. […] In the present experiment system, flow of these ions were detected, and opening and closing of the ion channel were observed. […]

ε2 subunit = assay: Electrophysiological test in Xenopus oocytes expressing only the ε2 subunit; format: cell-based, mouse; settings: ε2 mRNA alone
Protocol: as §6
(§8) The electrophysiological test was carried out by a conventional micropipet voltage clamp method. Oocytes generally have a membrane potential of about -30 to -40 mV. […] In the present experiment system, flow of these ions were detected, and opening and closing of the ion channel were observed. […]

ε3 subunit = assay: Electrophysiological test in Xenopus oocytes expressing only the ε3 subunit; format: cell-based, mouse; settings: ε3 mRNA alone
Protocol: as §6, §8

[6] = tested on: ε1/.xi.1, ε2/.xi.1 and ε3/.xi.1 heteromeric NMDA receptor channels; assay: Comparison of ε1/, ε2/ and ε3/.xi.1 heteromeric channels in Xenopus oocytes; format: cell-based, mouse; settings: 10-fold concentration used when examining EC50
Text: as §2

[7] = tested on: ε2/.zeta.1-N598Q NMDA receptor channel; assay: Electrophysiological test in Xenopus oocytes expressing modified ε2/.zeta.1-N598Q channel; format: cell-based, mouse
Text: (§3) In the figures, FIGS. 4(a), 4(b), 4(c) and 4(d) represent an ε2/.zeta.1 NMDA receptor channel, an ε2/.zeta.1-N598Q (a modified glutamate receptor shown in Sequence ID No. 9 of the sequence table) NMDA receptor channel, an ε2-N589Q (a modified glutamate receptor shown in Sequence ID No. 8 of the sequence table)/.zeta.l NMDA receptor channel and an ε2-N589Q/.zeta.1-N598Q NMDA receptor channel, respectively.
(§4) FIGS. 5(a) to 5(d) show current-voltage relationships of wild type and mutant heteromeric channels in the presence of 1 mM Mg^2+ ( ) and in the absence thereof (.smallcircle.). In the figures, FIGS. 5(a) , 5(b) , 5(c) and 5(d) represent an ε2/.zeta.1 NMDA receptor channel, an ε2/.zeta.1-N598Q NMDA receptor channel, an ε2-N589Q/.zeta.1 NMDA receptor channel and an ε2-N589Q/.zeta.1-N598Q NMDA receptor channel, respectively.
(§5) In the figure, .largecircle., , , .quadrature. and represent an ε2/.zeta.1 NMDA receptor channel, an ε2/.zeta.1-N598Q NMDA receptor channel, an ε2-N589Q/.zeta.1 NMDA receptor channel, an ε2-N589Q/.zeta.1-N598Q NMDA receptor channel and an ε2/.zeta.1-ZAZ (a mutant glutamate receptor shown in Sequence ID No. 10 of the sequence table) NMDA receptor channel, respectively. […]

[8] = tested on: ε2-N589Q/.zeta.1 NMDA receptor channel; assay: Electrophysiological test in Xenopus oocytes expressing modified ε2-N589Q/.zeta.1 channel; format: cell-based, mouse
Text: as §3, §4, §5

[9] = tested on: ε2-N589Q/.zeta.1-N598Q NMDA receptor channel; assay: Electrophysiological test in Xenopus oocytes expressing modified ε2-N589Q/.zeta.1-N598Q channel; format: cell-based, mouse
Text: as §3, §4, §5

ε1 subunit = assay: Electrophysiological test in Xenopus oocytes expressing only the ε1 subunit; format: cell-based, mouse; settings: 10 μM L-glutamate and 100 μM NMDA, even in the presence of 10 μM glycine
Protocol: One or both of ε1 subunit-specific mRNAs and .zeta.1.NMDA type glutamate receptor subunit-specific mRNAs (mRNAs derived from mice, coding an amino acid sequence different in the 213rd (Glu→Asp) and the 460th (Ile→Val) from the N terminal end from the amino acid sequence which is coded by cDNA.-NMDA R1 of a rat-NMDA type glutamate receptor cloned by Nakanishi et al. ("Nature", 354, pp. 31 to 37 (1991))) were injected into Xenopus oocytes.
The oocytes used were obtained from mature female Xenopus and separated into one oocyte in a Barth medium by using sharp tweezers and scissors. The concentration of the mRNAs was 0.1 μg/μl and 10 μl thereof was injected into about 100 oocytes in an amount of 50 to 100 nl per one oocyte. The mRNAs were injected under a microscope by using a capillary and a micromanipulator. After the injection, the oocytes were incubated at 19° C. for one day in a Barth medium containing 0.1 mg/ml of gentamicin ("The Control of Gene Expression in Animal Development, Clarendon, Oxford (1974)). […]
as §7

[10] = biological target: .zeta.1 NMDA type receptor subunit (Mus musculus, UniProt P35438); assay: Electrophysiological test in Xenopus oocytes expressing only the .zeta.1 subunit; settings: 100 μM NMDA and 10 μM glycine, n=7
Protocol: Then, by using the pBKSA ε1 cut by NotI as a template and using T3 RNA polymerase produced by BRL Co., ε1-specific mRNAs were synthesized in vitro. Transcription was carried out in a solution containing ATP, TTP and CTP at a concentration of 0.5 mM, respectively and 0.1 mM GTP in the presence of 0.5 mM dinucleotide 7mGpppG having a cap structure (in which 2 Gs were linked at 5' and 7-site of one guanine was methylated, produced by P-L Biochemicals Co.). One or both of ε1 subunit-specific mRNAs and .zeta.1.NMDA type glutamate receptor subunit-specific mRNAs (mRNAs derived from mice, coding an amino acid sequence different in the 213rd (Glu→Asp) and the 460th (Ile→Val) from the N terminal end from the amino acid sequence which is coded by cDNA.-NMDA R1 of a rat-NMDA type glutamate receptor cloned by Nakanishi et al. ("Nature", 354, pp. 31 to 37 (1991))) were injected into Xenopus oocytes.
as §6
The electrophysiological test was carried out by a conventional micropipet voltage clamp method. […] First, while a frog standard Ringer's solution (115 mM NaCl, 2.5 mM KCl, 1.8 mM CaCl2 and 10 mM HEPES-NaOH (pH: 7.2)) was flown in a chamber, 2 glass microelectrodes charged with 3M KCl were stuck in the oocytes, and the membrane potential was fixed to -70 mV. In these oocytes, an agonist (NMDA) is linked to a glutamate receptor expressed on a cell membrane and an ion channel is opened, the oocytes have an action of returning membrane potential to an original value, whereby inflow and outflow of ions are caused. In the present experiment system, flow of these ions were detected, and opening and closing of the ion channel were observed.
The ε1 subunit-specific mRNAs synthesized from the cloned cDNAs in vitro were injected into the Xenopus oocytes. […]

[11] = Ba^2+ Ringer's solution, dose-reaction curve
[12] = (+)-MK-801, continuous application

T2 sequence (P35436 23-1464 S384R, other chains not shown): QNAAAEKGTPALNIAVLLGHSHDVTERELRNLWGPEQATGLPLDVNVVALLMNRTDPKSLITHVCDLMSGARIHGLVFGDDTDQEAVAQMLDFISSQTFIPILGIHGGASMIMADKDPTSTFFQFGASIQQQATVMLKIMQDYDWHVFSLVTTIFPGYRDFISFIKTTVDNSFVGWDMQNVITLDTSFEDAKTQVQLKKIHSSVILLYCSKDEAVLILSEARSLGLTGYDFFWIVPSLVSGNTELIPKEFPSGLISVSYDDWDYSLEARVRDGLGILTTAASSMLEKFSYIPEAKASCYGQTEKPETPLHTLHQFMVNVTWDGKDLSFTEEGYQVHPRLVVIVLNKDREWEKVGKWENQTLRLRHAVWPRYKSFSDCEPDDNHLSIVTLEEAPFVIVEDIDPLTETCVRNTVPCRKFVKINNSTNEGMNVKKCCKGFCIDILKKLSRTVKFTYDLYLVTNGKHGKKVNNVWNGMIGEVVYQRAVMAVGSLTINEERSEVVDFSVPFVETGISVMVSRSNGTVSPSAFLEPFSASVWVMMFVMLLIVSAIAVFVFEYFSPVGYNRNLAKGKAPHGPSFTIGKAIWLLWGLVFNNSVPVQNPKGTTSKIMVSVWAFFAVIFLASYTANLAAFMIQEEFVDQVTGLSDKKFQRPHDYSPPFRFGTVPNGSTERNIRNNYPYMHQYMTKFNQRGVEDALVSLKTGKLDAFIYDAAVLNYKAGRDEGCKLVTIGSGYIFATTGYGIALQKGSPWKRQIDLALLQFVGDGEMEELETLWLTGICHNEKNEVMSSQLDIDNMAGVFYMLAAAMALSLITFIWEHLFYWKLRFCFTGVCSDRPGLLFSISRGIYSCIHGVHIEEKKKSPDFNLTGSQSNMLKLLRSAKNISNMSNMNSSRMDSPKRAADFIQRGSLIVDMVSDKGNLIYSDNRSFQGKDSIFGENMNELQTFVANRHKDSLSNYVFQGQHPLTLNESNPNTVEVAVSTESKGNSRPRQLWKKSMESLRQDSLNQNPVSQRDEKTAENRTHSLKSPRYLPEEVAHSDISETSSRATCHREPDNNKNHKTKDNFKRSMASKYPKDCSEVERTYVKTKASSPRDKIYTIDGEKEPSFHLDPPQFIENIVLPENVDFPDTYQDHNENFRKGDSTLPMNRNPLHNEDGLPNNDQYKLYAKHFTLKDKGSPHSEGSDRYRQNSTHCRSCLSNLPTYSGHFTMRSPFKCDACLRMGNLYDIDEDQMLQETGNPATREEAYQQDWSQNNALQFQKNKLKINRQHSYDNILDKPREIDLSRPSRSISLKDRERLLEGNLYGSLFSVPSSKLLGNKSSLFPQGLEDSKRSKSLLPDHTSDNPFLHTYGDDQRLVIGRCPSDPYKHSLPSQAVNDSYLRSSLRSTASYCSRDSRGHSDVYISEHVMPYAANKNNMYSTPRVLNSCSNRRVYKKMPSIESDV
T1 sequence (Q01097 27-1482, other chains not shown): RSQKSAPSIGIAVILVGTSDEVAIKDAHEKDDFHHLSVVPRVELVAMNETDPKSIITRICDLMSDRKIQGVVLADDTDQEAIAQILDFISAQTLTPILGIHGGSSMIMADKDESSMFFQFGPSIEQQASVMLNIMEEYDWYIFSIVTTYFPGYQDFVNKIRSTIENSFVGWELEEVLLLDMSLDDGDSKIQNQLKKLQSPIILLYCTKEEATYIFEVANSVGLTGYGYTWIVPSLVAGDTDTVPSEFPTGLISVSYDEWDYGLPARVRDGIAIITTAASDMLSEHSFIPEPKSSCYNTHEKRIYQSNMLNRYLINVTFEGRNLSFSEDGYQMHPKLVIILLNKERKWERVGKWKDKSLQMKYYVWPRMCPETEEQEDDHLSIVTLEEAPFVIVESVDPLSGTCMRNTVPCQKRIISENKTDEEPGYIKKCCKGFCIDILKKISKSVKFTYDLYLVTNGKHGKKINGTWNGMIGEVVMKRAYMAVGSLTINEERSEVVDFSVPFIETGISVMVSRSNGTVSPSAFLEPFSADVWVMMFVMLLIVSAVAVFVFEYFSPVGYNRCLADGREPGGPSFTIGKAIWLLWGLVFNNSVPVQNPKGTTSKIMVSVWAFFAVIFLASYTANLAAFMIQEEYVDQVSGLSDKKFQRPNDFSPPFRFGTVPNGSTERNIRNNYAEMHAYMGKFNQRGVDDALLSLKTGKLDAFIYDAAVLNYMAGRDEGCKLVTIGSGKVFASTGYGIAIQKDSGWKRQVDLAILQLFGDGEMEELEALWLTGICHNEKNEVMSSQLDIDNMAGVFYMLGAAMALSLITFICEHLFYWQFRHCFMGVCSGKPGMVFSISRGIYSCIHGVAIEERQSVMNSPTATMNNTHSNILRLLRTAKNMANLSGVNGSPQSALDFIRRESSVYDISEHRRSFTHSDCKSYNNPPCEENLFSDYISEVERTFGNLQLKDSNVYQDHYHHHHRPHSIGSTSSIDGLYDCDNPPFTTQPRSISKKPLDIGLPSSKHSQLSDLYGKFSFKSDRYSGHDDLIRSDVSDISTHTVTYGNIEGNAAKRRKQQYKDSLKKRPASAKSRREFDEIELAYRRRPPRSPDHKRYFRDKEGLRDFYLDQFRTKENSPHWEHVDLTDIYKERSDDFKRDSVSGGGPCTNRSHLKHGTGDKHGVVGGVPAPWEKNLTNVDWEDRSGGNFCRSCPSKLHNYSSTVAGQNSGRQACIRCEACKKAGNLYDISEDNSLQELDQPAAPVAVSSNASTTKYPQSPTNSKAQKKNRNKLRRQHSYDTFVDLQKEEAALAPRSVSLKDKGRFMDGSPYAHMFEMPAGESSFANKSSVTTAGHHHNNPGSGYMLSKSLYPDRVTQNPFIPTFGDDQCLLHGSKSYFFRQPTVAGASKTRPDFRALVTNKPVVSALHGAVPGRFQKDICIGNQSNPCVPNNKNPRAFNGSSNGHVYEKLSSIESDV
Sequence of ε3/.zeta.1 heteromeric NMDA receptor channel (Q01098 20-1239, other chains not shown): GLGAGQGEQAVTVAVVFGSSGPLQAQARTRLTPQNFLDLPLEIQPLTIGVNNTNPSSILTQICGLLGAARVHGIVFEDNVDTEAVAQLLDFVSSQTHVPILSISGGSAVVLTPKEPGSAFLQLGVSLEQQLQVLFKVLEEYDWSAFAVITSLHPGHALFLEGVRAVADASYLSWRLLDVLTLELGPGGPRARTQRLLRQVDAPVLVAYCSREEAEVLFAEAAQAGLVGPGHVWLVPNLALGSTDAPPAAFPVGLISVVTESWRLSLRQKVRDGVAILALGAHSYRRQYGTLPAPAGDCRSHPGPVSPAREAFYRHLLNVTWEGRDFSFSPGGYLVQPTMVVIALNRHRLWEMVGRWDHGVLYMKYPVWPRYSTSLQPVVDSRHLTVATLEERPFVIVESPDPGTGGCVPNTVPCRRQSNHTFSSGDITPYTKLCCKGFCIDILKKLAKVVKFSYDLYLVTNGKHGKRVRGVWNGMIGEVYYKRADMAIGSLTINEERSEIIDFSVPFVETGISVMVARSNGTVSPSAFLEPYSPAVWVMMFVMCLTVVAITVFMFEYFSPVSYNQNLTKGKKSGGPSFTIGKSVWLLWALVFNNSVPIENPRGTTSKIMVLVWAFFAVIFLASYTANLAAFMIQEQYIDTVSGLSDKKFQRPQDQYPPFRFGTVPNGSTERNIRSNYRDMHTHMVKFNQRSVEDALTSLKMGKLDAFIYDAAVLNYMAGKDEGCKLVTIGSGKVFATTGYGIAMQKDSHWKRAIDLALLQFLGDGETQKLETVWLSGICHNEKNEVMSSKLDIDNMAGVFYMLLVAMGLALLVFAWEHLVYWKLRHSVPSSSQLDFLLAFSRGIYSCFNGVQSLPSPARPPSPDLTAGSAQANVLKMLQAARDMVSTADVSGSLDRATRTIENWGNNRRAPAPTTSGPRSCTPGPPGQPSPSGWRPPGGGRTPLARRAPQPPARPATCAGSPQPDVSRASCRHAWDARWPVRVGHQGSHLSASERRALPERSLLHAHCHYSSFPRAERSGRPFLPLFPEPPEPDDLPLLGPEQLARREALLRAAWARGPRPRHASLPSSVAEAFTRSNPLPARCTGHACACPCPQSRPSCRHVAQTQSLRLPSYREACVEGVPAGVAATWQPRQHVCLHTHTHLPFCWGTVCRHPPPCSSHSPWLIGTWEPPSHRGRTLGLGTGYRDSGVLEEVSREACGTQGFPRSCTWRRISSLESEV

Cc1onc(O)c1CC(N)C(=O)O (centres unmarked) [AMPA]
response to kainate / AMPA [1]: less than the measurement limit
response to kainate / AMPA [2]: less than the measurement limit

C=C(C)[C@H]1CN[C@H](C(=O)O)[C@H]1CC(=O)O [kainate]
response to kainate / AMPA [1]: less than the measurement limit
response to kainate / AMPA [2]: less than the measurement limit

NCC(=O)O [glycine]
EC50 ([3]; Ba^2+ Ringer's solution, dose-reaction curve, read-out: EC50): 2100 nM
response to agonist alone [1]: showed a response
EC50 [1, 11]: 300 nM
response to agonist alone [2]: showed a response only to 10 μM glycine
EC50 [2, 11]: 200 nM
EC50 [4]: 90 nM
Hill coefficient ([4]; Ba^2+ Ringer's solution, -70 mV): 1.2
order of strength in affinity to agonist ([5]; Ba^2+ Ringer's solution): ε4/.xi.1>ε3/.xi.1>ε2/.xi.1

N[C@@H](CCC(=O)O)C(=O)O [L-glutamate]
EC50 [3]: 1700 nM
response of oocytes injected singly (ε2 subunit): < 1 nA
response of oocytes injected singly (ε3 subunit): < 1 nA

O=C(O)c1cc(O)c2ccc(Cl)cc2n1 [7 CK, 7-chlorokynurenate]
effect on response to 10 μM L-glutamate and 10 μM glycine [1]: suppressed
effect on response to 10 μM L-glutamate or 10 μM glycine alone [1]: disappeared
effect on response to 10 μM L-glutamate or 10 μM glycine alone ([2]; 100 μM APV, 30 μM 7 CK): disappeared
effect on response to 10 μM L-glutamate and 10 μM glycine ([2]; competitive antagonists, 100 μM Mg^2+, 100 μM Zn^2+, 1 μM (+)-MK-801): suppressed
decrease of channel activity ([4]; 100 μM APV or 3 μM 7 CK, response to 4.7 μM L-glutamate + 0.9 μM glycine, Ba^2+ Ringer's solution, -70 mV): 34%
effect on response to 10 μM L-glutamate and 10 μM glycine ([4]; 500 μM APV or 100 μM 7 CK): suppressed
degree of inhibition ([4]; compared with other ε/.xi. channels under the same conditions): smaller than those of the other ε/.xi. channels
order of strength in sensitivity to competitive antagonist [6]: ε3/.xi.1>ε2/.xi.1>ε1/.xi.1
order of sensitivity to competitive antagonist ([5]; 10-fold concentration of EC50 value): ε3/.xi.1>ε2/.xi.1>ε1/.xi.1=ε4/.xi.1

C[C@]12N[C@H](Cc3ccccc31)c1ccccc12 [(+)-MK-801]
effect on response to 10 μM L-glutamate and 10 μM glycine [1]: suppressed
inhibition of current response [1]: strongly inhibited
suppression after repetitive application [1]: suppressed almost completely
effect on response to 10 μM L-glutamate and 10 μM glycine [2]: suppressed
inhibition of current response ([7]; 1 mM Mg^2+, 100 μM Zn^2+, 1 μM (+)-MK-801, frog standard Ringer's, -70 mV, 10 μM L-glutamate + 10 μM glycine): suppressed effectively
suppression after repetitive application [7, 12]: strongly inhibited
suppression after repetitive application [8, 12]: strongly inhibited
sensitivity to inhibition / current response ([8]; Mg^2+, Zn^2+, repetitive (+)-MK-801, frog standard Ringer's, -70 mV, 10 μM L-glutamate + 10 μM glycine): showed a great current response after repetitive application of (+)-MK-801
suppression after repetitive application ([9]; (+)-MK-801 applied three times repeatedly): retained high activities
resistance / sensitivity to inhibition ([9]; Mg^2+, Zn^2+, (+)-MK-801, frog standard Ringer's, -70 mV, 10 μM L-glutamate + 10 μM glycine): strong resistance

CN[C@H](CC(=O)O)C(=O)O [NMDA, N-methyl-D-aspartic acid]
current amplitude ([3]; 100 μM NMDA and 10 μM glycine, Ba^2+ Ringer's solution, n=7): 57±3 nA
inward current ([3]; 100 μM NMDA and 10 μM glycine, frog standard Ringer's solution, -70 mV, n=7): 175±30 nA
inward current [1]: 546±172 nA
inward current [2]: 89±22 nA
inward current ([4]; 100 μM NMDA and 10 μM glycine, frog standard Ringer's solution, -70 mV, n=8): 68±13 nA
reaction of injected oocytes (ε1 subunit): did not show any reaction
response of oocytes injected singly (ε2 subunit): < 1 nA
response of oocytes injected singly (ε3 subunit): < 1 nA
current amplitude ([10]; Ba^2+ Ringer's solution): 1±0.2 nA
current amplitude ([10]; Example 1, frog standard Ringer's solution, -70 mV): 6±1 nA
current amplitude ([10]; Example 2): 9±2 nA
current amplitude ([10]; Example 3): 13±2 nA

N[C@@H](CC(=O)O)C(=O)O [L-aspartic acid]
response to agonist alone [1]: showed a response
